Experimental data published in US10072009B2, “N-substituted beta-carbolinium compounds as potent P-glycoprotein inducers” (Council of Scientific and Industrial Research, priority 2014, dated 2018).
Like-named read-outs stand apart in the source and are kept apart here. Values belong to the compound of their own block, whether it stands above or below them.

What was measured:
P-glycoprotein = experiment: P-glycoprotein-induction assay (rhodamine123 cell exclusion method) in LS-180 cells; details: for % Rh123 accumulation in LS-180 cells after 48 h: control = 100; for EC50: read-out: Pgp induction EC50 value, LS180 cells treated 48 h, Rh123 fluorescence vs concentration
Protocol: P-glycoprotein-induction assay. All synthesized compounds were screened for their ability to induce P-glycoprotein by using rhodamine123 (Rh123) cell exclusion method. In this method, the P-glycoprotein function was evaluated in terms of rhodamine 123 (Rh123) accumulation and efflux. Briefly, the protocol used is as follows: Colorectal LS180 cells Colorectal LS-180 cells [obtained from ECACC (European Collection of Cell Cultures) catalogue number: 87021202; passage number 52] were seeded at a density of 2×10^4 per well of 96 well plate and were allowed to grow for next 24 h. Cells were further incubated with the test compounds, and were diluted to a final concentration of 100 nM and rifampicin (standard) to a final concentration of 10 μM in complete media for 48 h. The final concentration of DMSO was kept at 0.1%. Drugs were removed and cells were incubated with HANKS buffer for 40 minutes before further incubation with HANKS buffer (containing 10 μM of Rh123 as a P-glycoprotein substrate) for 90 minutes. At the end of Rh123 treatment cells were washed four times with cold PBS followed by cell lysis for 1 h by using 200 μl of lysis buffer (0.1% Triton X-100 and 0.2 N NaOH). A total of 100 μl of lysate was used for reading fluorescence of Rh123 at 485 nm/529 nm Samples were normalized by dividing fluorescence of each sample with total protein present in the lysate. The Pgp-induction activity was measured in terms of the % intracellular accumulation of rhodamine 123/total protein inside LS180 cells. The decrease in the % intracellular accumulation (compared to control) of Rh123 indicates induction of P-glycoprotein as shown in Table 1. Rifampicin (10 μM) was used as a reference P-glycoprotein inducer. Statistical comparisons were made between control vs compounds by using Bonferroni test. The p value <0.5 was considered to be significant.
The decrease in % intracellular accumulation (compared to control) of Rh123 indicates induction of Pgp. Rifampicin (10 μM) was used as a reference Pgp inducer.
EC50 determination in p-glycoprotein-induction assay. […] For EC50 determination, different concentrations of compound were used to treat LS180 cells for 48 h. EC50 was determined by plotting fluoroscence of Rh123 against concentration of compound.

[1] = Thermodynamic equilibrium solubility; format: physicochemical; details: for solubility: 25 °C, thermodynamic from solid
Protocol: Determination of thermodynamic equilibrium solubility. The compounds were first dissolved in methanol to prepare stock solutions (100 and 1000 μg/mL) Different concentrations of stock solutions were pipetted into the 96-well plates and the solvent was evaporated to ensure that solid drug was present in the beginning of the experiment. […] The plates were kept overnight for equilibration of drug in medium. Later, the plates were centrifuged at 3000 rpm for 15 min (Jouan centrifuge BR4i). Supernatant (50 μl) was pipetted into UV 96-well plates (Corning® 96 Well Clear Flat Bottom UV-Transparent Microplate) for analyses with plate reader (SpectraMax Plus384) at λmax of 350 nm. The analyses were performed in triplicate for each compound. The solubility curve of concentration (μg/mL) vs absorbance was plotted to find out saturation point and the corresponding concentration was noted. The solubility of fascaplysin (1) and compounds 6 and 11 was determined.

[2] = test system: mouse leukemia cells L-1210; details: read-out: ED50, suppression of proliferation of L-1210 cells; cited from earlier work
[3] = target: acetylcholinesterase (AChE); details: read-out: AChE inhibition IC50; cited from earlier work
[4] = compounds at 5 μM (table footnote), decrease indicates Pgp induction

Compound: Cn1c2ccccc2c2cc[n+](C)c(C(=O)c3ccc(C(F)(F)F)cc3)c21 [Compound 12, 1-(4-trifluoromethyl-benzoyl)-9,N-dimethyl beta-carbolinium iodide]
- % Rh123 accumulation in LS-180 cells after 48 h (P-glycoprotein; [4]): 78.5 ± 5.8 %

Compound: Cn1c2ccccc2c2cc[n+](C)c(C(=O)c3ccccc3Cl)c21 [Compound 9, 1-(2-chloro-benzoyl)-9, N,N-dimethyl beta-carbolinium iodide]
- % Rh123 accumulation in LS-180 cells after 48 h (P-glycoprotein; [4]): 71.4 ± 8.4 %

Compound: 6-chloro-fascaplysin [Compound 5]
- % Rh123 accumulation in LS-180 cells after 48 h (P-glycoprotein; [4]): 59.2 ± 6.7 %

Compound: O=C1c2ccc(Cl)c(Cl)c2-[n+]2ccc3c([nH]c4ccccc43)c21 [Compound 4, 3,4-dichloro-fascaplysin]
- % Rh123 accumulation in LS-180 cells after 48 h (P-glycoprotein; [4]): 57.8 ± 8.3 %

- Solubility in Water [1]: >1500 µg/mL
- solubility ([1]; aqueous buffer, Solubility in PBS): 80 µg/mL
- solubility ([1]; fassgf or other biorelevant, Solubility in SIF): < 5 µg/mL
- solubility ([1]; simulated gastric fluid, Solubility in SGF): 80 µg/mL
- solubility ([1]; water, Solubility in Water): > 800 µg/mL
- EC50 (P-glycoprotein): 2 nM
Compound: O=C1c2cc(F)c(F)cc2-[n+]2ccc3c([nH]c4ccccc43)c21 [Compound 6, 4,5-difluoro-fascaplysin]
- % Rh123 accumulation in LS-180 cells after 48 h (P-glycoprotein; [4]): 49.6 ± 1.2 %

Compound: O=C1c2cc(F)c(Cl)cc2-[n+]2ccc3c([nH]c4ccccc43)c21 [Compound 3, 4-chloro-5-fluoro-fascaplysin]
- % Rh123 accumulation in LS-180 cells after 48 h (P-glycoprotein; [4]): 55.5 ± 6.9 %

Compound: O=C1c2ccccc2-[n+]2ccc3c([nH]c4ccccc43)c21.[Cl-] [Compound 1, Fascaplysin]
- solubility ([1]; aqueous buffer, phosphate buffer saline, read-out: Solubility in PBS): > 1500 µg/mL
- solubility ([1]; simulated gastric fluid, simulated gastric fluid, read-out: Solubility in SGF): > 1500 µg/mL
- solubility ([1]; simulated intestinal fluid, read-out: Solubility in SIF): > 1500 µg/mL
- solubility ([1]; water, water, 25±1° C., thermodynamic equilibrium, read-out: Solubility in Water): > 800 µg/mL
- Solubility in Water ([1]; water, 25±1° C., thermodynamic equilibrium): >1500 µg/mL
- EC50 [2]: 200 nM
- IC50 [3]: 1490 nM
- EC50 (P-glycoprotein): 2.8 nM

Compound: O=C1c2ccc(Cl)cc2-[n+]2ccc3c([nH]c4ccccc43)c21 [Compound 2, 4-chloro-fascaplysin]
- % Rh123 accumulation in LS-180 cells after 48 h (P-glycoprotein; [4]): 57.1 ± 9.2 %

Compound: Cn1c2ccccc2c2cc[n+](C)c(C(=O)c3ccccc3F)c21 [Compound 13, 1-(2-fluoro-benzoyl)-9,N-dimethyl beta-carbolinium iodide]
- % Rh123 accumulation in LS-180 cells after 48 h (P-glycoprotein; [4]): 79.0 ± 6.0 %

Compound: O=C1c2cc(Cl)ccc2-[n+]2ccc3c([nH]c4ccccc43)c21 [Compound 7, 5-chloro-fascaplysin]
- % Rh123 accumulation in LS-180 cells after 48 h (P-glycoprotein; [4]): 58.7 ± 7.8 %

Compound: Cn1c2ccccc2c2cc[n+](C)c(C(=O)c3c[nH]c4ccccc34)c21 [Compound 10, 1-(3-indoloyl)-9,N-dimethyl beta-carbolinium iodide]
- % Rh123 accumulation in LS-180 cells after 48 h (P-glycoprotein; [4]): 77.6 ± 7.6 %

- Solubility in Water [1]: 800 µg/mL
- solubility ([1]; water, Solubility in Water): > 800 µg/mL
- EC50 (P-glycoprotein): 3 nM
Compound: Cn1c2ccccc2c2cc[n+](C)c(C(=O)c3ccccc3Br)c21 [Compound 11, 1-(2-bromo-benzoyl)-9,N-dimethyl beta-carbolinium iodide]
- % Rh123 accumulation in LS-180 cells after 48 h (P-glycoprotein; [4]): 70.1 ± 6.7 %

Compound: Cn1c2ccccc2c2cc[n+](C)c(C(=O)c3ccccc3)c21 [Compound 8, 1-benzoyl-9,N-dimethyl beta-carbolinium iodide]
- % Rh123 accumulation in LS-180 cells after 48 h (P-glycoprotein; [4]): 75.2 ± 9.1 %

Compound: CO[C@H]1/C=C/O[C@@]2(C)Oc3c(C)c(O)c4c(O)c(c(/C=N/N5CCN(C)CC5)c(O)c4c3C2=O)NC(=O)/C(C)=C\C=C\[C@H](C)[C@H](O)[C@@H](C)[C@@H](O)[C@@H](C)[C@H](OC(C)=O)[C@@H]1C [Rifampicin, reference compound]
- % Rh123 accumulation in LS-180 cells after 48 h (P-glycoprotein; rifampicin 10 μM, reference Pgp inducer): 67.1 ± 4.6 %
